What was measured:
[1] = for mass density: 101.33 kPa, Liquid
[2] = xn = mol fraction of the nth substance listed

OCc1ccccc1 [benzenemethanol]
[1]
Details	mass density [kg/m3]	surface tension liquid-gas [mN/m]
293.15 K	1045.2	39.05
298.15 K	1041.4	38.58
303.15 K	–	38.12
308.15 K	–	37.63
313.15 K	1029.8	37.16
318.15 K	–	36.63
323.15 K	–	36.18

OCc1ccccc1 [benzenemethanol] + C1CCCCC1
surface tension liquid-gas [mN/m], [2]
Details	x2 = 0	x2 = 0.0068	x2 = 0.0079	x2 = 0.0107	x2 = 0.0202	x2 = 0.0312	x2 = 0.0409	x2 = 0.0655
293.15 K	39.05	37.88	37.73	37.48	37.07	36.53	35.88	34.14
298.15 K	38.58	37.43	37.39	37.15	36.68	36.25	35.66	34.04
303.15 K	38.12	37.06	36.93	36.74	36.32	35.98	35.41	33.94
308.15 K	37.63	36.66	36.54	36.38	35.92	35.73	35.22	33.82
313.15 K	37.16	36.29	36.12	35.99	35.58	35.47	34.96	33.72
318.15 K	36.63	35.84	35.74	35.66	35.24	35.22	34.77	33.61
323.15 K	36.18	35.5	35.32	35.25	34.86	34.96	34.53	33.5

OCc1ccccc1 [benzenemethanol] + CCCCCC
surface tension liquid-gas [mN/m], [2]
Details	x2 = 0	x2 = 0.0068	x2 = 0.0085	x2 = 0.0198	x2 = 0.0215	x2 = 0.0264	x2 = 0.0493	x2 = 0.07
293.15 K	39.05	37.39	37.24	34.45	33.73	33.22	30.61	27.46
298.15 K	38.58	37.1	36.85	34.74	34.04	33.56	31.06	27.96
303.15 K	38.12	36.84	36.41	35.03	34.38	33.86	31.54	28.72
308.15 K	37.63	36.53	36.01	35.35	34.69	34.25	31.92	29.29
313.15 K	37.16	36.3	35.6	35.63	34.99	34.59	32.35	29.9

OCc1ccccc1 [benzenemethanol] + CCCCCCC
surface tension liquid-gas [mN/m], [2]
Details	x2 = 0	x2 = 0.0065	x2 = 0.009	x2 = 0.0112	x2 = 0.0238	x2 = 0.0306	x2 = 0.0445	x2 = 0.067
293.15 K	39.05	37.77	37.07	–	33.61	32.37	28.84	26.09
298.15 K	38.58	37.47	36.87	34.69	33.83	32.58	29.16	26.47
303.15 K	38.12	37.1	36.62	35.02	34.05	32.82	29.43	26.89
308.15 K	37.63	36.78	36.41	35.28	34.27	33.04	29.68	27.27
313.15 K	37.16	36.49	36.16	35.53	34.48	33.24	30	27.7
318.15 K	36.63	36.18	35.95	35.83	34.7	33.46	30.3	28.08
323.15 K	36.18	35.92	35.74	36.11	34.95	33.68	30.61	28.46

OCc1ccccc1 [benzenemethanol] + CCCCCCCCC
surface tension liquid-gas [mN/m], [2]
Details	x2 = 0	x2 = 0.0061	x2 = 0.008	x2 = 0.0116	x2 = 0.0204	x2 = 0.0329	x2 = 0.0408	x2 = 0.0668
293.15 K	39.05	36.83	36.33	35.34	32.52	30.44	28.73	26.66
298.15 K	38.58	36.4	35.95	35.13	32.31	30.23	28.52	26.56
303.15 K	38.12	35.85	35.52	34.59	32.02	30	28.22	26.38
308.15 K	37.63	35.51	35.21	34.33	31.83	29.85	28.03	26.28
313.15 K	37.16	35.03	34.84	33.98	31.61	29.62	27.82	26.19
318.15 K	36.63	34.61	34.5	33.67	31.41	29.44	27.67	26.12
323.15 K	36.18	34.25	34.16	33.32	31.22	29.25	27.46	26.02

C1CCCCC1 [cyclohexane]
[1]
Details	mass density [kg/m3]	surface tension liquid-gas [mN/m]
293.15 K	778.6	25.06
298.15 K	773.9	24.45
303.15 K	–	23.87
308.15 K	–	23.21
313.15 K	759.6	22.71
318.15 K	–	22.05
323.15 K	–	21.45

C1CCCCC1 [cyclohexane] + OCc1ccccc1
[2], x1 = 1
Details	surface tension liquid-gas [mN/m]
293.15 K	25.06
298.15 K	24.45
303.15 K	23.87
308.15 K	23.21
313.15 K	22.71
318.15 K	22.05
323.15 K	21.45

CCCCCCC [heptane]
[1]
Details	mass density [kg/m3]	surface tension liquid-gas [mN/m]
293.15 K	696	20.05
298.15 K	691.9	19.54
303.15 K	–	19.1
308.15 K	–	18.58
313.15 K	680	18.08
318.15 K	–	17.6
323.15 K	–	17.06

CCCCCCC [heptane] + OCc1ccccc1
[2], x1 = 1
Details	surface tension liquid-gas [mN/m]
293.15 K	20.05
298.15 K	19.54
303.15 K	19.1
308.15 K	18.58
313.15 K	18.08
318.15 K	17.6
323.15 K	17.06

CCCCCC [hexane]
[1]
Details	mass density [kg/m3]	surface tension liquid-gas [mN/m]
293.15 K	660.2	18.56
298.15 K	655.4	18.03
303.15 K	–	17.44
308.15 K	–	16.92
313.15 K	641.4	16.38

CCCCCC [hexane] + OCc1ccccc1
[2], x1 = 1
Details	surface tension liquid-gas [mN/m]
293.15 K	18.56
298.15 K	18.03
303.15 K	17.44
308.15 K	16.92
313.15 K	16.38

CCCCCCCCC [nonane]
[1]
Details	mass density [kg/m3]	surface tension liquid-gas [mN/m]
293.15 K	717.7	23.04
298.15 K	713.9	22.49
303.15 K	–	22.04
308.15 K	–	21.49
313.15 K	694.2	20.94
318.15 K	–	20.47
323.15 K	–	19.98

CCCCCCCCC [nonane] + OCc1ccccc1
[2], x1 = 1
Details	surface tension liquid-gas [mN/m]
293.15 K	23.04
298.15 K	22.49
303.15 K	22.04
308.15 K	21.49
313.15 K	20.94
318.15 K	20.47
323.15 K	19.98

From the NIST ThermoML archive (doi:10.1021/je050159x)
